# Tests used:
# [1] = test system: SW480 colon carcinoma cells; assay: Cell viability assay (CellTiter-Glo) in SW480 cells; format: cell-based, human; settings: Homo sapiens, 96 h, four days
# Procedure: SW480 colon carcinoma cells were transduced with a lentiviral vector expressing luciferase with a human Sp5 promoter consisting of a sequence of eight TCF/LEF binding sites. SW480 cells stably expressing the Sp5-Luc reporter gene and a hygromycin resistance gene were selected by treatment with 150 µg/mL of hygromycin for 7 days. These stably transduced SW480 cells were expanded in cell culture and used for all further screening activities.
# For the Cell Viability Assays, the cells were plated at 2,000 cells/well in 384-well plates with a DMEM medium containing 1% fetal bovine serum, and 1% Penicillin-Streptomycin and incubated for […] at 37° C. and 5% CO2. Eight replicates of DMSO-treated cells served as controls and cells treated with compound were performed in duplicate.
# After incubation, 10 μL of CellTiter-Glo (Promega) was added to each well allowed to incubate for approximately 12 minutes. This reagent “results in cell lysis and generation of a luminescent signal proportional to the amount of ATP present. The amount of ATP is directly proportional to the number of cells present in culture, in agreement with previous reports. The CellTiter-Glo® Assay generates a “glow-type” luminescent signal, produced by the luciferase reaction (Promega.com)”.
# recombinant GSK3β kinase = recombinant GSK3β kinase (Homo sapiens (Human), UniProt P49841); assay: GSK3β kinase assay (Ser/Thr 09 peptide Z-lyte, FRET); format: biochemical; settings: GSK3β kinase, 46 μM ATP, one hour; method calls values IC50
# recombinant GSK3β kinase, sequence (P49841 whole entry): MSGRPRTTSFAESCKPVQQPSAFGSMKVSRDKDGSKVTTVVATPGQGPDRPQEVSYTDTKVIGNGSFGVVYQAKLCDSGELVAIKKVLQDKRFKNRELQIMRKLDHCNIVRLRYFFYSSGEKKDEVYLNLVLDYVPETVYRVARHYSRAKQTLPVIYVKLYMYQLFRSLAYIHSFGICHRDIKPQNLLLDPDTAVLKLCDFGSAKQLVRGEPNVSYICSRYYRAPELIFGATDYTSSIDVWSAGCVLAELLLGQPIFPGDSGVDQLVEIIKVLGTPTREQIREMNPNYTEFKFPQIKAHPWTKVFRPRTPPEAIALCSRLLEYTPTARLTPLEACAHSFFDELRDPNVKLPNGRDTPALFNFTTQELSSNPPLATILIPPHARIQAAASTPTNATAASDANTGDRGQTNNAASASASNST
# [2] = molecular target: recombinant DYRK1A kinase (Homo sapiens (Human), UniProt Q13627); assay: DYRK1A kinase assay (Ser/Thr 18 peptide Z-lyte, FRET); settings: DYRK1A kinase, 30 μM ATP, one hour; method calls values IC50
# Procedure: Each compound was dissolved in DMSO as a 10 mM stock and used to prepare compound source plates.
# This is a non-radioactive assay using fluorescence resonance energy transfer (FRET) between coumarin and fluorescein to detect kinase activity which is represented as a ratio of coumarin emission/fluorescein emission.
# The mixture was allowed to incubate with the representative compounds for one hour at room temperature. All reactions were performed in duplicate. Unphosphorylated (“0% Control”) and phosphorylated (“100% control”) forms of Ser/Thr 18 served as control reactions. Additionally, an 11-point dose-response curve of Staurosporine (1 uM top) was run to serve as a positive compound control.
# After incubation, Development Reagent A was diluted in Development Buffer then added to the reaction and allowed to further incubate for one hour at room temperature.
# Dose-response curves were generated and inhibitory concentration (IC50) values were calculated using non-linear regression curve fit in the Dotmatics' Studies Software (Bishops Stortford, UK).
# IL-6 = IL-6 inhibition in LPS-stimulated human peripheral blood mononuclear cells (HTRF); format: cell-based; settings: Homo sapiens, PBMC; for EC50: huPBMCs, LPS 50 ng/mL, 22 hours, IL-6 HTRF; for inhibition at 10 µM: read-out: percent inhibition at 10 μM
# Procedure: Fresh Normal PB MNC (Catalog # PB001, AllCells, Alameda, Calif.) were shipped overnight at 4° C. and resuspended in Roswell Park Memorial Institute (RPMI) 1640 Medium, with GlutaMAX Supplement (Catalog #61870127, ThermoFisher Scientific, Waltham, Mass.) supplemented with 1% Penicillin-Streptomycin (Catalog #15140163, ThermoFisher Scientific, Waltham, Mass.) and 1% fetal bovine serum (FBS) (Catalog #16140089, ThermoFisher Scientific, Waltham, Mass.) assay media.
# Fresh normal human peripheral blood mononuclear cells (huPBMCs) were resuspended in 1% FBS-RPMI assay media with 1% Penicillin-Streptomycin 1% to a cell concentration of 1×10e6 cells/mL. […] 50 ng/mL of Lipopolysaccharides from Escherichia coli 0111:B4 (Catalog #L5293-2ML, Sigma-Aldrich, St. Louis, Mo.) was added after 2 hours and cells were incubated for another 22 hours at 37° C.-5% CO2. After 22 hour incubation, a mixture of anti-IL6 XL665 and anti-IL-6 Cryptate diluted in reconstitution buffer (Catalog #62IL6PEC, Cisbio Inc., Bedford, Mass.) was added to each well. Following incubation for 3 hours at room temperature, Homogeneous Time-Resolved Fluorescence (HTRF) was measured using the Envision (Perkin Elmer, Shelton, Conn.) at 665 nm and […]. The ratio of fluorescence at 665 nm to 620 nm was used as a readout for IL-6 quantification. All samples were processed in duplicate. Readings were normalized to DMSO treated cells and normalized activities were utilized for EC50 calculations. EC50 was determined using software generated by Dotmatics Limited (Windhill Bishops Stortford Herts, UK) using the Levenberg-Marquardt 4 parameter fitting procedure with finite different gradients.
# [3] = test system: primary human fibroblasts derived from IPF patients (LL29 cells), α-smooth muscle actin; assay: Inhibition of fibrotic process: αSMA in TGF-β1 treated LL29 fibroblasts; format: cell-based; settings: Homo sapiens, Fibroblast, 96 h; LL29 cells, TGF-β1 20 ng/mL, 4 days, % cells positive for αSMA
# Procedure: Representative compounds were screened using primary human fibroblasts (derived from IPF patients) treated with TGF-β1 to determine their ability to inhibit the fibrotic process.
# LL29 cells were plated at 1,500 cells/well in 70 μL/well F12 medium supplemented with 1% Fetal Bovine Serum. […] Wells treated with TGF-β1 and containing DMSO were used as positive control, and cells with only DMSO were negative control. […] Following incubation for 4 days, SYTOX green nucleic acid stain (Life Technologies [Thermo Fisher Scientific]) was added to the wells at a final concentration of 1 μM and incubated at room temperature for 30 min.
# [4] = test system: Wnt-responsive promoter (Sp5-Luc reporter) in SW480 colon carcinoma cells; assay: Sp5-Luc reporter gene screening assay for Wnt activity in SW480 cells; format: cell-based, human; settings: Homo sapiens, 36 to 48 hours, luminescence
# Source text: The screening assay for Wnt activity is described as follows. Reporter cell lines can be generated by stably transducing cancer cell lines (e.g., colon cancer) or primary cells (e.g., IEC-6 intestinal cells) with a lentiviral construct that includes a Wnt-responsive promoter driving expression of the firefly luciferase gene.
# SW480 colon carcinoma cells were transduced with a lentiviral vector expressing luciferase with a human Sp5 promoter consisting of a sequence of eight TCF/LEF binding sites. SW480 cells stably expressing the Sp5-Luc reporter gene and a hygromycin resistance gene were selected by treatment with 150 μg/mL of hygromycin for 7 days. These stably transduced SW480 cells were expanded in cell culture and used for all further screening activities. […] For Sp5-Luc reporter gene assays, the cells were plated at 4,000 cells/well in 384-well plates with a DMEM medium containing 1% fetal bovine serum, and 1% Penicillin-Streptomycin and incubated for 36 to 48 hours at 37° C. and 5% CO2. Following incubation, 15 μl of BriteLite Plus luminescence reagent (Perkin Elmer) was added to each well of the 384-well assay plates. The plates were placed on an orbital shaker for 2 min and then luminescence was quantified using the Envision (Perkin Elmer) plate reader. Readings were normalized to DMSO only treated cells, and normalized activities were utilized for EC50 calculations using the dose-response log (inhibitor) vs. response −variable slope (four parameters) nonlinear regression feature available in GraphPad Prism 5.0 (or Dotmatics).
Structure (SMILES),EC50 [1] [µM],EC50 (recombinant GSK3β kinase) [µM],EC50 [2] [µM],EC50 (IL-6) [µM],inhibition at 10 µM (IL-6) [%],EC50 [3] [µM],EC50 [4] [µM]
"CN(C)C1CN(c2nc(C(=O)Nc3cc4cc(-c5cnn(C)c5)ccc4cn3)co2)C1 [Compound 18, 2-(3-(Dimethylamino)azetidin-1-yl)-N-(6-(1-methyl-1H-pyrazol-4-yl)isoquinolin-3-yl)oxazole-4-carboxamide]",3.91,1.26,0.015,> 10,9,0.481,1.04
"Cn1cc(-c2ccc3cnc(NC(=O)c4coc(C5CCNCC5)n4)cc3c2)cn1 [Compound 19, N-(6-(1-Methyl-1H-pyrazol-4-yl)isoquinolin-3-yl)-2-(piperidin-4-yl)oxazole-4-carboxamide]",0.3,0.979,0.012,0.695,,0.17,0.106
"CN1CCC(c2nc(C(=O)Nc3cc4cc(-c5cnn(C)c5)ccc4cn3)co2)CC1 [Compound 20, N-(6-(1-Methyl-1H-pyrazol-4-yl)isoquinolin-3-yl)-2-(1-methylpiperidin-4-yl)oxazole-4-carboxamide]",0.427,3.24,0.015,3.69,,2,0.107
"CC(C)N1CCC(c2nc(C(=O)Nc3cc4cc(-c5cnn(C)c5)ccc4cn3)co2)CC1 [Compound 22, 2-(1-Isopropylpiperidin-4-yl)-N-(6-(1-methyl-1H-pyrazol-4-yl)isoquinolin-3-yl)oxazole-4-carboxamide]",0.782,2.59,0.016,> 10,27.8,2.91,0.18
"CN1CCN(c2nc(C(=O)Nc3cc4cc(-c5cnn(C)c5)ccc4cn3)co2)CC1 [Compound 23, N-(6-(1-Methyl-1H-pyrazol-4-yl)isoquinolin-3-yl)-2-(4-methylpiperazin-1-yl)oxazole-4-carboxamide]",3.73,2.18,0.018,> 10,5.5,0.325,1.02
"CN(C)C1CN(c2ncc(C(=O)Nc3cc4cc(-c5cnn(C)c5)ccc4cn3)s2)C1 [Compound 24, 2-(3-(Dimethylamino)azetidin-1-yl)-N-(6-(1-methyl-1H-pyrazol-4-yl)isoquinolin-3-yl)thiazole-5-carboxamide]",1.64,1.76,0.002,3.02,,2.75,1.32
"Cn1cc(-c2ccc3cnc(NC(=O)c4csc(C5CCNCC5)n4)cc3c2)cn1 [Compound 25, N-(6-(1-Methyl-1H-pyrazol-4-yl)isoquinolin-3-yl)-2-(piperidin-4-yl) thiazole-4-carboxamide]",0.876,3.06,0.039,2.58,,1.19,0.546
"CN1CCN(c2nc(C(=O)Nc3cc4cc(-c5cnn(C)c5)ccc4cn3)cs2)CC1 [Compound 26, N-(6-(1-Methyl-1H-pyrazol-4-yl)isoquinolin-3-yl)-2-(4-methylpiperazin-1-yl)thiazole-4-carboxamide]",3.41,2.19,0.003,> 10,40.3,4.7,1.75
"Cn1cc(-c2ccc3cnc(NC(=O)c4cnn(C5CCNCC5)c4)cc3c2)nn1 [Compound 29, N-(6-(1-Methyl-1H-1,2,3-triazol-4-yl)isoquinolin-3-yl)-1-(piperidin-4-yl)-1H-pyrazole-4-carboxamide]",0.06,0.23,0.003,0.366,,0.135,0.03
"CN1CCC(n2cc(C(=O)Nc3cc4cc(-c5cn(C)nn5)ccc4cn3)cn2)CC1 [Compound 30, N-(6-(1-Methyl-1H-1,2,3-triazol-4-yl)isoquinolin-3-yl)-1-(1-methylpiperidin-4-yl)-1H-pyrazole-4-carboxamide]",0.032,0.322,0.003,0.261,,0.083,0.014
"CCN1CCC(n2cc(C(=O)Nc3cc4cc(-c5cn(C)nn5)ccc4cn3)cn2)CC1 [Compound 31, 1-(1-Ethylpiperidin-4-yl)-N-(6-(1-methyl-1H-1,2,3-triazol-4-yl)isoquinolin-3-yl)-1H-pyrazole-4-carboxamide]",0.039,0.286,0.003,0.688,,0.298,0.021
"CC(C)N1CCC(n2cc(C(=O)Nc3cc4cc(-c5cn(C)nn5)ccc4cn3)cn2)CC1 [Compound 32, 1-(1-Isopropylpiperidin-4-yl)-N-(6-(1-methyl-1H-1,2,3-triazol-4-yl)isoquinolin-3-yl)-1H-pyrazole-4-carboxamide]",0.044,0.349,0.003,0.437,,0.203,0.033
"Cn1cc(-c2ccc3cnc(NC(=O)c4cn(C5CCNCC5)nn4)cc3c2)nn1 [Compound 33, N-(6-(1-Methyl-1H-1,2,3-triazol-4-yl)isoquinolin-3-yl)-1-(piperidin-4-yl)-1H-1,2,3-triazole-4-carboxamide]",0.257,0.316,0.007,0.852,,0.562,0.071
"Cn1cc(-c2ccc3cnc(NC(=O)c4cn(C5CCN(CCF)CC5)nn4)cc3c2)nn1 [Compound 34, 1-(1-(2-Fluoroethyl)piperidin-4-yl)-N-(6-(1-methyl-1H-1,2,3-triazol-4-yl)isoquinolin-3-yl)-1H-1,2,3-triazole-4-carboxamide]",0.664,0.395,0.006,1.1,,0.642,0.23

# From patent publication US10744128B2, “6-(5-membered heteroaryl)isoquinolin-3-yl-(5-membered heteroaryl) carboxamides and preparation and use thereof” (Samumed, LLC, priority 2017, dated 2020)
